How the values were obtained:
[1] = In vitro serum stability study; type: in vitro ADME, human; conditions: for % Intact of [^89Zr]Zr-DOTMA (n = 3) Radio-ITLC / % Intact of [^89Zr]Zr-DOTMA (n = 3) Radio-SE-HPLC: human serum, 37 °C
Protocol: The in vitro serum stability was determined by adding 20 μL of [^89Zr]Zr-DOTMA (113–124 μCi, 4.2–4.6 MBq) to 500 μL of human serum. The solutions (n = 3) were incubated at 37 °C for 7 days and were analyzed daily for 1 week by radio-TLC using Varian ITLC-SA strips, 0.1 M EDTA (pH 5) as the mobile phase, and gamma counting. Samples were also analyzed at 1, 3, 5, and 7 days via size exclusion chromatography (SEC) using a Superdex 200 10/300 GL column (GE Healthcare Life Sciences, Piscataway, NJ, USA) and phosphate buffered saline (PBS) as an eluent with a flow rate of 0.5 mL/min. Fractions (0.5 mL per tube) were collected, and the activity in each fraction was measured in a gamma counter. The percent intact radiopharmaceutical was determined by […] in the chromatogram and multiplying by a factor of 100%.

[2] = Biodistribution studies in non-tumor-bearing, normal mice; type: in vivo, female NIH Swiss mice; conditions: for Biodistribution (%ID/g) Blood / Biodistribution (%ID/g) Bone / Biodistribution (%ID/g) Fat / Biodistribution (%ID/g) Heart / Biodistribution (%ID/g) Kidney / Biodistribution (%ID/g) Large intestine / Biodistribution (%ID/g) Liver / Biodistribution (%ID/g) Lung / Biodistribution (%ID/g) Muscle / Biodistribution (%ID/g) Pancreas / Biodistribution (%ID/g) Small intestine / Biodistribution (%ID/g) Spleen / Biodistribution (%ID/g) Stomach: tail vein, n = 6
Protocol: Female NIH Swiss mice (6–8 weeks old) were purchased from Inotiv, Lafayette, IN, USA. All animals were acclimated to a 12 h light/dark cycle and received food and water ad libitum for 5 days before any manipulations were performed. All animals were checked by veterinary staff daily to ensure well-being and proper environment and to monitor for signs of distress. Clinical signs of distress in laboratory rodents include decreased activity, pilo-erection, un-groomed appearance, excessive licking and scratching, self-mutilation, abnormal stance, hunched appearance, rapid or shallow respiration, grunting, dilated pupils, aggressiveness towards handler, high-pitched vocalizations, change in feeding activity, and attempts to separate from group. In the event of clinical distress, animals were euthanized after consulting the on-call veterinarian. To minimize suffering during the tail vain injection, animals were kept under deep isoflurane anesthesia. At the end point of the study, animals were anesthetized with isoflurane and were euthanized by cervical dislocation, which is consistent with the recommendations of the American Veterinary Medical Association Guidelines on Euthanasia.
Biodistribution studies were conducted using a modified literature procedure. Briefly, female NIH Swiss mice (6–8 weeks old, n = 6/cohort; 30 animals total) were injected with [^89Zr]Zr-DOTMA (0.55 MBq (15 μCi)/mouse) via the tail vein and sacrificed at 2, 4, 24, 48, and 72 h p.i. Organs and tissues of interest were excised, weighed, and counted on a gamma counter. The percent injected dose per gram (%ID/g) was calculated by comparison to a weighed, counted standard for each group.

CC(C(=O)[O-])N1CCN(C(C)C(=O)[O-])CCN(C(C)C(=O)[O-])CCN(C(C)C(=O)[O-])CC1.[89Zr+4] (stereo not shown) [[^89Zr]Zr-DOTMA]
% Intact of [^89Zr]Zr-DOTMA (n = 3) Radio-ITLC ([1]; 0 h): ≥99.99%
% Intact of [^89Zr]Zr-DOTMA (n = 3) Radio-SE-HPLC ([1]; 0 h): ≥99.99%
% Intact of [^89Zr]Zr-DOTMA (n = 3) Radio-ITLC ([1]; 1 d): ≥99.99%
% Intact of [^89Zr]Zr-DOTMA (n = 3) Radio-SE-HPLC ([1]; 1 d): ≥99.99%
% Intact of [^89Zr]Zr-DOTMA (n = 3) Radio-ITLC ([1]; 3 d): ≥99.99%
% Intact of [^89Zr]Zr-DOTMA (n = 3) Radio-SE-HPLC ([1]; 3 d): ≥99.99%
% Intact of [^89Zr]Zr-DOTMA (n = 3) Radio-ITLC ([1]; 5 d): ≥99.99%
% Intact of [^89Zr]Zr-DOTMA (n = 3) Radio-SE-HPLC ([1]; 5 d): ≥99.99%
% Intact of [^89Zr]Zr-DOTMA (n = 3) Radio-ITLC ([1]; 7 d): ≥99.99%
% Intact of [^89Zr]Zr-DOTMA (n = 3) Radio-SE-HPLC ([1]; 7 d): 99.9 ± 0.1%
association of ^89Zr with serum proteins (in words) ([1]; incubation in human serum, seven-day time course): not associated with the serum proteins
Biodistribution (%ID/g) Blood ([2]; 2 h p.i.): 0.011 ± 0.001 %ID/g
Biodistribution (%ID/g) Bone ([2]; 2 h p.i.): 0.032 ± 0.006 %ID/g
Biodistribution (%ID/g) Fat ([2]; 2 h p.i.): 0.007 ± 0.003 %ID/g
Biodistribution (%ID/g) Heart ([2]; 2 h p.i.): 0.021 ± 0.003 %ID/g
Biodistribution (%ID/g) Kidney ([2]; 2 h p.i.): 1.053 ± 0.071 %ID/g
Biodistribution (%ID/g) Large intestine ([2]; 2 h p.i.): 0.523 ± 0.112 %ID/g
Biodistribution (%ID/g) Liver ([2]; 2 h p.i.): 0.238 ± 0.020 %ID/g
Biodistribution (%ID/g) Lung ([2]; 2 h p.i.): 0.071 ± 0.006 %ID/g
Biodistribution (%ID/g) Muscle ([2]; 2 h p.i.): 0.008 ± 0.003 %ID/g
Biodistribution (%ID/g) Pancreas ([2]; 2 h p.i.): 0.011 ± 0.003 %ID/g
Biodistribution (%ID/g) Small intestine ([2]; 2 h p.i.): 0.229 ± 0.039 %ID/g
Biodistribution (%ID/g) Spleen ([2]; 2 h p.i.): 0.078 ± 0.008 %ID/g
Biodistribution (%ID/g) Stomach ([2]; 2 h p.i.): 0.069 ± 0.008 %ID/g
Biodistribution (%ID/g) Blood ([2]; 4 h p.i.): 0.008 ± 0.001 %ID/g
Biodistribution (%ID/g) Bone ([2]; 4 h p.i.): 0.024 ± 0.004 %ID/g
Biodistribution (%ID/g) Fat ([2]; 4 h p.i.): 0.006 ± 0.002 %ID/g
Biodistribution (%ID/g) Heart ([2]; 4 h p.i.): 0.019 ± 0.004 %ID/g
Biodistribution (%ID/g) Kidney ([2]; 4 h p.i.): 0.689 ± 0.086 %ID/g
Biodistribution (%ID/g) Large intestine ([2]; 4 h p.i.): 0.632 ± 0.088 %ID/g
Biodistribution (%ID/g) Liver ([2]; 4 h p.i.): 0.123 ± 0.017 %ID/g
Biodistribution (%ID/g) Lung ([2]; 4 h p.i.): 0.060 ± 0.005 %ID/g
Biodistribution (%ID/g) Muscle ([2]; 4 h p.i.): 0.004 ± 0.002 %ID/g
Biodistribution (%ID/g) Pancreas ([2]; 4 h p.i.): 0.010 ± 0.004 %ID/g
Biodistribution (%ID/g) Small intestine ([2]; 4 h p.i.): 0.080 ± 0.007 %ID/g
Biodistribution (%ID/g) Spleen ([2]; 4 h p.i.): 0.076 ± 0.004 %ID/g
Biodistribution (%ID/g) Stomach ([2]; 4 h p.i.): 0.013 ± 0.005 %ID/g
Biodistribution (%ID/g) Blood ([2]; 24 h p.i.): 0.005 ± 0.001 %ID/g
Biodistribution (%ID/g) Bone ([2]; 24 h p.i.): 0.026 ± 0.004 %ID/g
Biodistribution (%ID/g) Fat ([2]; 24 h p.i.): 0.005 ± 0.002 %ID/g
Biodistribution (%ID/g) Heart ([2]; 24 h p.i.): 0.009 ± 0.002 %ID/g
Biodistribution (%ID/g) Kidney ([2]; 24 h p.i.): 0.077 ± 0.009 %ID/g
Biodistribution (%ID/g) Large intestine ([2]; 24 h p.i.): 0.022 ± 0.008 %ID/g
Biodistribution (%ID/g) Liver ([2]; 24 h p.i.): 0.018 ± 0.002 %ID/g
Biodistribution (%ID/g) Lung ([2]; 24 h p.i.): 0.033 ± 0.004 %ID/g
Biodistribution (%ID/g) Muscle ([2]; 24 h p.i.): 0.001 ± 0.000 %ID/g
Biodistribution (%ID/g) Pancreas ([2]; 24 h p.i.): 0.003 ± 0.001 %ID/g
Biodistribution (%ID/g) Small intestine ([2]; 24 h p.i.): 0.007 ± 0.001 %ID/g
Biodistribution (%ID/g) Spleen ([2]; 24 h p.i.): 0.044 ± 0.005 %ID/g
Biodistribution (%ID/g) Stomach ([2]; 24 h p.i.): 0.005 ± 0.002 %ID/g
Biodistribution (%ID/g) Blood ([2]; 48 h p.i.): 0.004 ± 0.001 %ID/g
Biodistribution (%ID/g) Bone ([2]; 48 h p.i.): 0.023 ± 0.004 %ID/g
Biodistribution (%ID/g) Fat ([2]; 48 h p.i.): 0.002 ± 0.001 %ID/g
Biodistribution (%ID/g) Heart ([2]; 48 h p.i.): 0.004 ± 0.002 %ID/g
Biodistribution (%ID/g) Kidney ([2]; 48 h p.i.): 0.021 ± 0.003 %ID/g
Biodistribution (%ID/g) Large intestine ([2]; 48 h p.i.): 0.003 ± 0.001 %ID/g
Biodistribution (%ID/g) Liver ([2]; 48 h p.i.): 0.008 ± 0.001 %ID/g
Biodistribution (%ID/g) Lung ([2]; 48 h p.i.): 0.015 ± 0.002 %ID/g
Biodistribution (%ID/g) Muscle ([2]; 48 h p.i.): 0.001 ± 0.001 %ID/g
Biodistribution (%ID/g) Pancreas ([2]; 48 h p.i.): 0.001 ± 0.001 %ID/g
Biodistribution (%ID/g) Small intestine ([2]; 48 h p.i.): 0.002 ± 0.000 %ID/g
Biodistribution (%ID/g) Spleen ([2]; 48 h p.i.): 0.024 ± 0.005 %ID/g
Biodistribution (%ID/g) Stomach ([2]; 48 h p.i.): 0.001 ± 0.000 %ID/g
fold less radioactivity associated with liver tissue compared to [^89Zr]Zr-DFO ([2]; 72 h p.i.): 9 fold
fold less radioactivity in the bone tissue than [^89Zr]Zr-DFO ([2]; 72 h p.i.): 3 fold
fold less radioactivity retained in the kidney than [^89Zr]Zr-DFO ([2]; 72 h p.i.): 69 fold
Biodistribution (%ID/g) Blood ([2]; 72 h p.i.): 0.003 ± 0.001 %ID/g
Biodistribution (%ID/g) Bone ([2]; 72 h p.i.): 0.023 ± 0.003 %ID/g
Biodistribution (%ID/g) Fat ([2]; 72 h p.i.): 0.001 ± 0.001 %ID/g
Biodistribution (%ID/g) Heart ([2]; 72 h p.i.): 0.004 ± 0.001 %ID/g
Biodistribution (%ID/g) Kidney ([2]; 72 h p.i.): 0.010 ± 0.002 %ID/g
Biodistribution (%ID/g) Large intestine ([2]; 72 h p.i.): 0.003 ± 0.001 %ID/g
Biodistribution (%ID/g) Liver ([2]; 72 h p.i.): 0.007 ± 0.001 %ID/g
Biodistribution (%ID/g) Lung ([2]; 72 h p.i.): 0.013 ± 0.003 %ID/g
Biodistribution (%ID/g) Muscle ([2]; 72 h p.i.): 0.001 ± 0.001 %ID/g
Biodistribution (%ID/g) Pancreas ([2]; 72 h p.i.): 0.001 ± 0.001 %ID/g
Biodistribution (%ID/g) Small intestine ([2]; 72 h p.i.): 0.001 ± 0.000 %ID/g
Biodistribution (%ID/g) Spleen ([2]; 72 h p.i.): 0.026 ± 0.002 %ID/g
Biodistribution (%ID/g) Stomach ([2]; 72 h p.i.): 0.001 ± 0.000 %ID/g
